These molecules were tested on Rattus norvegicus (assay: Percentage inhibition of edema formation in rat after 3 hours of treatment with the compound at a dosage of 30 mg/Kg).
Type: functional
In the case of `OC1OC[C@@H](Cc2ccc3c(c2)OCO3)[C@@H]1Cc1ccc2c(c1)OCO2` (some centres undefined), the inhibition in vivo at 30 mg/kg is reported as 53%.
With `Nc1cc2c(cc1C[C@@H]1COC(=O)[C@H]1Cc1cc3c(cc1N)OCO3)OCO2` the inhibition in vivo at 30 mg/kg was 82%.
`O=C1OC[C@@H](Cc2ccc3c(c2)OCO3)[C@@H]1Cc1ccc2c(c1)OCO2` showed an inhibition in vivo at 30 mg/kg of 63%.
`O=C1OC[C@@H](Cc2cc3c(cc2[N+](=O)[O-])OCO3)[C@@H]1Cc1cc2c(cc1[N+](=O)[O-])OCO2` showed an inhibition in vivo at 30 mg/kg of 54%.

Reference: ChEMBL document CHEMBL1144316, “Synthesis and biological activity evaluation of lignan lactones derived from (-)-cubebin” (2005)
